Experimental data published in patent US4554273A, “2-Amino-5-phenyl-1,3-benzodiazepines” (Lipha Lyonnaise Industrielle Pharmaceutique, priority 1983, dated 1985).
Structures can show the parent of a compound that is named as a salt.

What was measured:
[1] = lethal dose (LD50) determined orally in Swiss mice; conditions: mouse, in vivo, oral
[2] = test system: Reserpine ptosis; experiment: inhibition of reserpine ptosis (oral); type: in vivo; conditions: Mus musculus, 1.5 h, Swiss mice, reserpine 5 mg/kg intraperitoneal, compounds orally at the same time, ptosis marked 1 h 30 min later
Experimental: The mood-modifying activity of the compounds is evaluated by standardized tests such as inhibition of known reserpine ptosis. Reserpine ptosis may be induced by methods such as those described in the literature. For example, Rubin, et al, [J. Pharmacol, Exp. Ther. 120: 125(1957)] induced ptosis in Swiss mice by intraperitoneal injection of 5 mg/kg of reserpine. This ptosis was marked 1 h 30 min later. Compounds to be tested for reserpine inhibition were administered orally at the same time as the reserpine was injected.

Compound | LD50 [1] [mg/kg] | ED50 [2] [mg/kg]
CCOC(=O)NC1=Nc2ccccc2C(c2ccccc2)CN1 (centres unmarked) [Example 48, 2-amino-(5-Phenyl-4,5-3H-dihydro-1,3-benzodiazepin)yl ethyl carbamate] | > 3200 | 13
NC1=Nc2ccccc2C(c2ccc(Cl)cc2)CN1 (centres unmarked) [Example 4, 2-Amino-5-(4-chlorophenyl)-4,5-3H-dihydro-1,3-benzodiazepine hydrochloride] | 1200 | 11
Cc1ccc(C2CNC(N)=Nc3ccccc32)cc1 (centres unmarked) [Example 3, 2-Amino-5-(4-methylphenyl)-4,5-3H-hydro-1,3-benzodiazepine hydrochloride] | 330 | 10
NC1=Nc2ccccc2C(c2ccccc2)CN1 (centres unmarked) [Example 1, 2-Amino-5-phenyl-4,5-3H-dihydro-1,3-benzodiazepine hydrochloride] | 600 | 18
Cc1ccc(C2CNC(N)=Nc3ccc(C)cc32)cc1 (centres unmarked) [Example 8, 2-Amino-7-methyl-5-(4-methylphenyl)-4,5-3H-dihydro-1,3-benzodiazepine hydrochloride] | 2400 | 3
CN(C)CCC=C1c2ccccc2CCc2ccccc21 [AMITRIPTYLINE, 5-(3-dimethylaminopropylidene)dibenzo[a,d]-1,4-cycloheptadiene hydrochloride, reference compound] |  | 10
